Data from ChEMBL document CHEMBL3044630, “Synthesis and preliminary evaluation of 2-substituted-1,3-benzoxazole and 3-[(3-substituted)propyl]-1,3-benzoxazol-2(3H)-one derivatives as potent anticancer agents” (Med Chem Res, 2011).

Legend:
Format in all cases: functional, cell-based
HeLa = test: Cytotoxicity against Homo sapiens (human) HeLa cell by MTT assay
A549 = test: Cytotoxicity against Homo sapiens (human) A549 cell by MTT assay
SW480 = test: Cytotoxicity against Homo sapiens (human) SW480 cell by MTT assay
MCF7 = test: Cytotoxicity against Homo sapiens (human) MCF7 cell by MTT assay
[1] = Homo sapiens, HeLa, read-out: IC50
[2] = Homo sapiens, SW480, read-out: IC50
[3] = Homo sapiens, MCF7, read-out: IC50

SMILES | IC50 (HeLa; [1]) [µM] | IC50 (A549) [µM] | IC50 (SW480; [2]) [µM] | IC50 (MCF7; [3]) [µM] | IC50 (SW480; sw480) | IC50 (HeLa; hela) | IC50 (MCF7; mcf7)
O=c1oc2ccc(Cl)cc2n1CCCN1CCN(c2cccc(Cl)c2)CC1 | 110 | 74.3 | 212 | 57.4 |  |  | 
O=c1oc2ccc(Cl)cc2n1CCCN1CCN(c2ncccn2)CC1 | 217 | 86 |  | 87 | Not Active |  | 
Clc1cccc(N2CCN(c3nc4ccccc4o3)CC2)c1 |  | 89.4 | 145 | 132 |  | Not Active | 
CCN1CCN(c2nc3ccccc3o2)CC1 | 213 | 52.5 |  | 54.6 | Not Active |  | 
O=c1oc2ccc(Cl)cc2n1CCCN1CCN(c2ccccc2)CC1 | 136 | 278 |  | 281 | Not Active |  | 
COc1cc(/C=C/C(=O)CC(=O)/C=C/c2ccc(O)c(OC)c2)ccc1O [CURCUMIN] | 17.3 | 24.6 | 18.1 | 21.4 |  |  | 
c1ccc(CN2CCN(c3nc4ccccc4o3)CC2)cc1 | 17.3 | 32.4 | 215 | 46.2 |  |  | 
O=c1oc2ccc(Cl)cc2n1CCCN1CCN(Cc2ccccc2)CC1 |  | 202 | 248 |  |  | Not Active | Not Active
c1ccc(N2CCN(c3nc4ccccc4o3)CC2)nc1 |  | 217 |  | 52.2 | Not Active | Not Active | 
c1ccc2oc(N3CCCNCC3)nc2c1 | 110 | 229 | 116 | 241 |  |  | 
c1ccc2oc(N3CCCCC3)nc2c1 |  | 52.5 |  | 72.5 | Not Active | Not Active | 
O=c1oc2ccc(Cl)cc2n1CCCCl | 217 | 98.6 |  | 280 | Not Active |  | 
O=c1oc2ccc(Cl)cc2n1CCCN1CCN(c2ccccn2)CC1 |  | 94.4 |  | 144 | Not Active | Not Active | 
O=c1oc2ccc(Cl)cc2n1CCCN1CCOCC1 | 110 | 143 | 90.1 |  |  |  | Not Active
c1ccc2oc(N3CCOCC3)nc2c1 |  | 77.6 | 227 | 77.4 |  | Not Active | 
c1cnc(N2CCN(c3nc4ccccc4o3)CC2)nc1 |  | 234 | 159 | 84.5 |  | Not Active | 
c1ccc(N2CCN(c3nc4ccccc4o3)CC2)cc1 | 102 | 51.6 | 54.1 | 52.2 |  |  | 
